According to publication PMC12171880, “Selectivity and Safety Characterization of a Xanthine–Imidazothiazole Lead Structure: a Novel Tryptophan Hydroxylase Inhibitor of Peripheral Serotonin Synthesis” (ACS Pharmacology & Translational Science, 2025):
Values joined by “and” are separate entries in the source; they are usually repeats but may differ in a detail not shown here. Equal entries are not always repeated.

Experiments:
[1] = target: T1, human recombinant TPH1 (Homo sapiens, UniProt P17752); assay: TPH1 enzymatic activity assay (fluorescence, 96-well); assay type: biochemical
T1 construct: Full-length human TPH1 and TPH2 (UniProt entries P17752 and Q8IWU9); MBP (N); made in house
T1 sequence (P17752 1-444): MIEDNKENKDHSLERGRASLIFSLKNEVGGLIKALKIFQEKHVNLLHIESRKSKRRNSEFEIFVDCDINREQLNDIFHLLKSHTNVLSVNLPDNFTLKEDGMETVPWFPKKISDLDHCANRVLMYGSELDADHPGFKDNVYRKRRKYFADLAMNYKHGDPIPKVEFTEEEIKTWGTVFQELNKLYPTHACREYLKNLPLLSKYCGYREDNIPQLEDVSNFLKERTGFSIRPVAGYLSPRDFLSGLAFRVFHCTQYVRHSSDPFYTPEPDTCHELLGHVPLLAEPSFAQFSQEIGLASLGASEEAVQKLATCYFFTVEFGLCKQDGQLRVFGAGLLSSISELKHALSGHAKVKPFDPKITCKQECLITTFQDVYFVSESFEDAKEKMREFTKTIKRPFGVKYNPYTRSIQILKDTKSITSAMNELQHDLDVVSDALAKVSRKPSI

[2] = target: T2, human recombinant PAH (Homo sapiens, UniProt P00439); assay: PAH enzymatic activity assay (fluorescence, 96-well); assay type: biochemical
T2 construct: expression vectors for full-length human PAH (UniProt entry P00439); made in house; host or cells: E. coli T7 Express (NEB) with pRARE2
T2 sequence (P00439 1-452): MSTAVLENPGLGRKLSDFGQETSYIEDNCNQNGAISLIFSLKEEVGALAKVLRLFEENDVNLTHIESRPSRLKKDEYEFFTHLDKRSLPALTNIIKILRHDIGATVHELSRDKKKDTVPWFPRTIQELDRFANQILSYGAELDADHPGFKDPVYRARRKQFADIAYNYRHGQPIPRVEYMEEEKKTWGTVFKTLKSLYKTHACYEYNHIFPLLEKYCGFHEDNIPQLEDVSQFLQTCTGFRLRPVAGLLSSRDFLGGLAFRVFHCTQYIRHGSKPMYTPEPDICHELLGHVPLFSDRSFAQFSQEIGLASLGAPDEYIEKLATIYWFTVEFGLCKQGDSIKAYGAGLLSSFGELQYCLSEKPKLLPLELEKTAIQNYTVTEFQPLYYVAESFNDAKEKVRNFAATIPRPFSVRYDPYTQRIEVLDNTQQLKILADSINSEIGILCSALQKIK

[3] = test system: Sprague–Dawley rats; assay: Dose-range finding study in rats, in-life phase; assay type: in vivo, rat
Experimental: The in-life phase of the experiment was performed at Pharmacelsus GmbH (Saarbrücken, Germany) and enrolled 24 Sprague–Dawley rats (12 males and 12 females) provided by Janvier Laboratories (France); the animals were 7 weeks old at delivery. Inclusion criteria (sex, appropriate body weight, and absence of behavioral changes) were established prior to the study’s commencement. The animals were housed in a temperature-controlled room (20–24 °C) and maintained in a 12 h light/12 h dark cycle. Before the start of the study, the animals underwent a six-day acclimation period. Food and water were available ad libitum throughout the duration of the study.
(§1) TPT-004 was formulated in 0.5% (w/v) CMC-Na in water and administered by oral gavage (PO) twice daily (b.i.d.) with a 12 h interval to the treatment groups (3 male and 3 female Sprague–Dawley rats each) for 8 days (15 successive applications). Rats were dosed with 10, 45, and 200 mg/kg, i.e., daily doses of 20, 90, and 400 mg/kg. In addition, a control group was dosed at the same frequency as the vehicle (0.5% CMC-Na).
(§2) Blood samples were collected as described below. The animal sacrifice (exsanguination) was performed on day 8. During the necropsy, the selected organs were collected, weighed, and shipped to a third-party laboratory for histopathological examination (as described below).

[4] = test system: Sprague–Dawley rats; assay: Dose-range finding study in rats, necropsy and organ weight; assay type: in vivo, rat; settings: for Organ weight, Brain / Organ weight, Heart / Organ weight, Kidney / Organ weight, Liver / Organ weight, Lung / Organ weight, Ovary (n=3 per group) / Organ weight, Spleen / Organ weight, Testis (n=3 per group): day 8
Experimental: as §1, §2

[5] = two rodent species; previously published pharmacokinetic data; cited from earlier work
[6] = test system: brain serotonin turnover; settings: mice, 1.5 mg/kg BID to 100 mg/kg BID; prior pharmacodynamic studies; cited from earlier work
[7] = test system: mice; settings: 14 days repeated oral treatment, 10 or 50 mg/kg BID, previous study; cited from earlier work
[8] = test system: MC38 colorectal carcinoma model; settings: mouse colorectal carcinoma; previous study; cited from earlier work
[9] = test system: Sugen–Hypoxia rat model of pulmonary arterial hypertension; settings: previous study; cited from earlier work
[10] = 10, 45, or 200 mg/kg BID PO, 8 days
[11] = 10, 45 or 200 mg/kg BID PO, D1 to D8

CCn1c(=O)[nH]c(=O)c2c1nc(Cc1cn3cc(C)sc3n1)n2CC1COC1 [TPT-004]
Mean TPH1 activity [%] ([1]; 3 nM): 99.51% | IC50 ([1]; 3 nM to 10 μM, 15 μM L-Trp, 20 μM BH4): 33.4 nM | Mean TPH1 activity [%] ([1]; 10 nM): 77.11% | Mean TPH1 activity [%] ([1]; 30 nM): 52.25% | Mean TPH1 activity [%] ([1]; 100 nM): 21.29% | Mean TPH1 activity [%] ([1]; 300 nM): 7.59% | Mean TPH1 activity [%] ([1]; 1 μM): 3.62% | Mean TPH1 activity [%] ([1]; 3 μM): 3.64% | Mean TPH1 activity [%] ([1]; 10 μM): 3.21% | fold higher TPH1 inhibitory potency (lower IC50) compared to LP778902 ([1]; 33.38 vs […]): ~18 | IC50 ([1]; supplementary CSV): 33 nM | Mean PAH activity [%] ([2]; 10 nM): 94.75% | IC50 ([2]; 10 nM to 30 μM, 175 μM L-Phe, 10 μM BH4): 404 nM | Mean PAH activity [%] ([2]; 30 nM): 91.12% | Mean PAH activity [%] ([2]; 100 nM): 82.79% | Mean PAH activity [%] ([2]; 300 nM): 58.10% | Mean PAH activity [%] ([2]; 1 μM): 25.53% | Mean PAH activity [%] ([2]; 3 μM): 9.81% | Mean PAH activity [%] ([2]; 10 μM): 4.37% | Mean PAH activity [%] ([2]; 30 μM): 2.49% | Selectivity ratio PAH IC50 : TPH1 IC50 ([2]; calculated from determined IC50 values): 12.09 | IC50 ([2]; supplementary CSV): 404 nM | clinical signs [3, 10]: None of the rats exhibited clinical signs | survival [3, 10]: All of the animals survived | body weight [3, 11]: increased normally | food consumption [3, 11]: in the same range as that of the control group | Organ weight, Brain ([4]; 10 mg/kg PO BID): 6.8 g/kg body weight | Organ weight, Heart ([4]; 10 mg/kg PO BID): 3.5 g/kg body weight | Organ weight, Kidney ([4]; 10 mg/kg PO BID): 3.8 g/kg body weight | Organ weight, Liver ([4]; 10 mg/kg PO BID): 39.4 g/kg body weight | Organ weight, Lung ([4]; 10 mg/kg PO BID): 5.3 g/kg body weight | Organ weight, Ovary (n=3 per group) ([4]; 10 mg/kg PO BID): 0.72 g/kg body weight | Organ weight, Spleen ([4]; 10 mg/kg PO BID): 2.9 g/kg body weight | Organ weight, Testis (n=3 per group) ([4]; 10 mg/kg PO BID): 8.7 g/kg body weight | Organ weight, Brain ([4]; 45 mg/kg PO BID): 6.5 g/kg body weight | Organ weight, Heart ([4]; 45 mg/kg PO BID): 3.6 g/kg body weight | Organ weight, Kidney ([4]; 45 mg/kg PO BID): 3.6 g/kg body weight | Organ weight, Liver ([4]; 45 mg/kg PO BID): 42.1 g/kg body weight | Organ weight, Lung ([4]; 45 mg/kg PO BID): 5.2 g/kg body weight | Organ weight, Ovary (n=3 per group) ([4]; 45 mg/kg PO BID): 0.55 g/kg body weight | Organ weight, Spleen ([4]; 45 mg/kg PO BID): 2.8 g/kg body weight | Organ weight, Testis (n=3 per group) ([4]; 45 mg/kg PO BID): 8.1 g/kg body weight | Organ weight, Brain ([4]; 200 mg/kg PO BID): 6.7 g/kg body weight | Organ weight, Heart ([4]; 200 mg/kg PO BID): 3.6 g/kg body weight | Organ weight, Kidney ([4]; 200 mg/kg PO BID): 4.0 g/kg body weight | Organ weight, Lung ([4]; 200 mg/kg PO BID): 5.2 g/kg body weight | Organ weight, Ovary (n=3 per group) ([4]; 200 mg/kg PO BID): 0.65 g/kg body weight | Organ weight, Spleen ([4]; 200 mg/kg PO BID): 2.8 g/kg body weight | Organ weight, Testis (n=3 per group) ([4]; 200 mg/kg PO BID): 8.4 g/kg body weight | Organ weight, Liver ([4]; 200 mg/kg PO BID, vehicle 41.2 ± 2.2, p = 0.0128): 45.2 g/kg body weight and 45.2 ± 1.2 g/kg body weight | gross lesions at necropsy [4, 10]: No test-item-related gross lesions | weight of the organs, vehicle vs treatment groups, overall ([4]; 10, 45 or 200 mg/kg BID PO, 8 days, except liver at 200 mg/kg BID): No significant difference | blood-brain barrier penetration [5]: exceptionally low blood-brain barrier penetration | balance of brain serotonin turnover [6]: did not show an altered balance of brain serotonin turnover | neuropsychiatric effects in behavioral tests [7]: no neuropsychiatric effects were observed | dose needed to achieve the therapeutic effects [8]: 50 mg/kg BID | dose needed to achieve the therapeutic effects [9]: 10 mg/kg BID
